Data as given in ChEMBL document CHEMBL4138122, “Azaphenothiazines - promising phenothiazine derivatives. An insight into nomenclature, synthesis, structure elucidation and biological properties” (Eur J Med Chem, 2017).
In brackets after ≈: the same amount, converted by molar mass.

What was measured:
Mus musculus [1] = assay: Anti-inflammatory activity in IL1-induced paw inflammation Balb/c mouse model assessed as inhibition of neutrophil migration at 10 mg/kg, po, pretreated for 30 mins followed by IL1 challenge measured after 2 hrs by spectrophotometric method; assay type: functional
[2] = target: Intercellular adhesion molecule 1 (Homo sapiens, UniProt P05362); assay: Inhibition of ICAM1 (unknown origin)
Intercellular adhesion molecule 1, sequence (P05362 whole entry): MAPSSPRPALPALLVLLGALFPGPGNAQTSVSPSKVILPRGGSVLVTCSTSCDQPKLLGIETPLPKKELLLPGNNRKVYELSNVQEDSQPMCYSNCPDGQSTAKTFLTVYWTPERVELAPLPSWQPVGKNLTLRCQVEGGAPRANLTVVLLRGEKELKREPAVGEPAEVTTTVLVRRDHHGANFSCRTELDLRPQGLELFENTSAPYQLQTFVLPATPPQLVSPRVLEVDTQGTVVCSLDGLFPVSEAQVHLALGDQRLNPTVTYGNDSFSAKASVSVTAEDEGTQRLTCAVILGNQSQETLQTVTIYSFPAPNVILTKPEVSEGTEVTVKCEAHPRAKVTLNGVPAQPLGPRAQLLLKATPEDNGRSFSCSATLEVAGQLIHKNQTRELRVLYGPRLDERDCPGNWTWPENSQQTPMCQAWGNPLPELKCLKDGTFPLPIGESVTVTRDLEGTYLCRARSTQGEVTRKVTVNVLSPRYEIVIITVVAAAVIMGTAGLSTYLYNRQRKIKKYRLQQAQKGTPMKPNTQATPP

Mus musculus [3] = assay: Anti-inflammatory activity in mouse IL-1-induced paw inflammation model assessed as inhibition of neutrophil infiltration at 10 mg/kg, po; assay type: functional; conditions: for inhibition in vivo at 10 mg/kg: Mus musculus, po
Mus musculus [4] = assay: Analgesic activity in mouse assessed as reduction in phenylquinone-induced number of writhes at 20 mg/kg, ip; assay type: functional; set-up: scale not given: the % may be the effect or the level left
[5] = Inhibition of lipoxygenase in rat peritoneal cavity resident cells
Escherichia coli = assay: Antibacterial activity against Escherichia coli; assay type: functional; conditions: Escherichia coli
Bacillus cereus = assay: Antibacterial activity against Bacillus cereus; assay type: functional, organism-based
[6] = Inhibition of LTB4 formation in rat polymorphonuclear leukocytes preincubated for 2 mins followed by A-23187 addition after 4 mins; assay type: functional, cell-based
Mus musculus [7] = assay: Neuropharmacological activity in iv dosed Charles River Swiss mouse assessed as minimum dose at which reactive signs were observed in half of mouse tested; assay type: functional
Candida albicans = assay: microbe, parasite or virus in culture
Description: Antimicrobial activity against Candida albicans

Staphylococcus aureus = assay: Antibacterial activity against Staphylococcus aureus; assay type: functional; conditions: Staphylococcus aureus; read-out: MIC
Rattus norvegicus = assay: Analgesic activity in Sprague-Dawley rat assessed as reduction in phenylbenzoquinone-induced number of writhes at 20 mg/kg, sc incubated for 60 mins; assay type: functional; set-up: scale not given: the % may be the effect or the level left
Lipoxygenase = Lipoxygenase (Glycine max, UniProt Q39829); assay: Inhibition of soybean lipoxygenase using linoleic acid as substrate preincubated for 5 mins followed by substrate addition measuredf after 7 mins by solution A/B solution based assay
[8] = target: Cholinesterase (Equus caballus) (UniProt P81908); assay: Inhibition of horse serum BChE at 10 uM
Cholinesterase (Equus caballus), sequence (P81908 whole entry): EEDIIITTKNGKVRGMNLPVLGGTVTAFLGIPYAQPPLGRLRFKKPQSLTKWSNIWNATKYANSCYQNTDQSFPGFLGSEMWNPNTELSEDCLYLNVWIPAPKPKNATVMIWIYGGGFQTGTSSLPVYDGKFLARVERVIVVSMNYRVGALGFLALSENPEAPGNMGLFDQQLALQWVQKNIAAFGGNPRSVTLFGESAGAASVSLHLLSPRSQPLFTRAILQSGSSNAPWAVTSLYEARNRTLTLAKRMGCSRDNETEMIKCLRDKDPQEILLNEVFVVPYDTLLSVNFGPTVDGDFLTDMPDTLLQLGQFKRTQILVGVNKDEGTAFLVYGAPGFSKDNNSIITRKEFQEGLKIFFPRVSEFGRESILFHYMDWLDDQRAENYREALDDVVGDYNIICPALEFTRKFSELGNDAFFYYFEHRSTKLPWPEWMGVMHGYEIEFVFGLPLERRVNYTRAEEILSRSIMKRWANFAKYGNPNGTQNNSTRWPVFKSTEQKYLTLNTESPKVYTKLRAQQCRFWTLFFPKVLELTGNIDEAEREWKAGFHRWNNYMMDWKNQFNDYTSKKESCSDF

Cholinesterase = Cholinesterase (Equus caballus, UniProt P81908); assay: Inhibition of horse serum BChE
Cholinesterase, sequence (P81908 whole entry): as above

PBMC [9] = assay: Cytotoxicity in human PBMCs assessed as reduction in cel viability at 50 ug/ml; assay type: cell-based
PBMC [10] = assay: Inhibition of PHA-induced cell proliferation of human PBMC at 50 ug/ml incubated for 4 days by MTT method; assay type: functional; conditions: 96 h
Bacillus subtilis = assay: Antibacterial activity against Bacillus subtilis; assay type: functional; conditions: Bacillus subtilis
[11] = Inhibition of soybean 15-lipoxygenase; set-up: species or system Glycine max
PBMC [12] = assay: Inhibition of LPS-induced TNFalpha profduction in human PBMC at 5 ug/ml; assay type: functional
UO-31 = assay: Growth inhibition of human UO31 cells at 10 uM; assay type: functional; conditions: read-out: GI
Enterococcus faecalis = assay: Antibacterial activity against Enterococcus faecalis; assay type: functional
MCF7 = assay: Cytotoxicity against human MCF7 cells incubated for 72 hrs by WST1 dye based assay; assay type: functional, cell-based; conditions: MCF7, 72 h
HFF-1 = assay: Cytotoxicity against human HFF1 cells incubated for 72 hrs by WST1 dye based assay; assay type: cell-based; conditions: HFF-1, 72 h
[13] = Displacement of [3H]-diazepam from benzodiazepine receptor in rat brain membranes after 30 mins; assay type: cell membranes, Membrane

CS(=O)(=O)NCC1CCN(Cc2ccc3c(c2)Nc2nccnc2S3)CC1
inhibition in vivo at 10 mg/kg (Mus musculus [1]): 77.6% | IC50 [2]: 270 to 1400 nM

O=C(O)c1ccc(CC2CCN(Cc3ccc4c(c3)Nc3nccnc3S4)CC2)cc1
inhibition in vivo at 10 mg/kg (Mus musculus [3]): 88% | IC50 [2]: 420 to 1000 nM

CN1CCN(Cc2nnc3c4c(cnn23)Sc2ccccc2N4)CC1
Activity (Mus musculus [4]): 54 - 65%

O=C(O)CC1C2CCCC1CN(Cc1ccc3c(c1)Nc1nccnc1S3)C2 (stereo in doubt; 64d)
inhibition (INH) (Mus musculus [3]): 80.6% | IC50 [2]: 2300 nM

O=c1[nH]c2c(c(=O)[nH]1)Nc1ccccc1S2 [PYRIMIDOBENZOTHIAZINE]
IC50 [5]: 5300 nM

Cc1ncc2c(n1)N=c1c(c3c(c4ccccc14)=Nc1cc([N+](=O)[O-])ccc1O3)S2
MIC (Escherichia coli): 87.1 to 97.1 µg/mL (≈ 211 to 235 µM) | MIC (Bacillus cereus): 87.1 µg/mL (≈ 211 µM)

COc1ccc2c(c1)Sc1nccnc1N2
IC50 [6]: 0.05 to 1 µg/mL (≈ 0.216 to 4.32 µM)

Cn1c(=O)[nH]c2c(c1=O)Nc1ccccc1S2
IC50 [5]: 1900 nM

CC(C)N(CCSC(=O)N1c2ccccc2Sc2cc(Cl)cnc21)C(C)C
MED50 (Mus musculus [7]): 0.058 to 1.8 mg/kg

Nc1nc(O)c2c(n1)N=c1c(c3c(c4ccccc14)=Nc1ccccc1S3)S2
MIC (Candida albicans): 91.2 µg/mL (≈ 227 µM) | MIC (Staphylococcus aureus): 79.4 µg/mL (≈ 198 µM)

O=C(O)C1CC2(CCN(Cc3ccc4c(c3)Nc3nccnc3S4)CC2)C1
inhibition in vivo at 10 mg/kg (Mus musculus [3]): 82.8% | IC50 [2]: 420 to 1000 nM

CN(C)CCCN1c2ccccc2Sc2cnccc21.O=C(O)C(=O)O
Activity (Rattus norvegicus): 59 - 86%

CCN1CCN(c2nc(C)c3c(n2)Sc2ccccc2N3)CC1
IC50 (Lipoxygenase): 40700 nM

CN(C)CCSc1nnc2c3c(cnn12)Sc1ccccc1N3
Activity (Mus musculus [4]): 54 - 65%

CSc1nnc2c3c(cnn12)Sc1ccccc1N3
Activity (Mus musculus [4]): 54 - 65%

CN1CCC2=C(C1)Sc1ccccc1N2CCCN1CCOCC1
Activity (Rattus norvegicus): 93%

O=C(O)C(=O)O.c1ccc2c(c1)Sc1cnccc1N2CCCN1CCOCC1
Activity (Rattus norvegicus): 59 - 86%

COc1ccc2c(n1)Sc1c3c(c4ccccc4c1=N2)=Nc1c(N)ncnc1O3
MIC (Escherichia coli): 87.1 to 97.1 µg/mL (≈ 218 to 242 µM) | MIC (Bacillus cereus): 77.1 µg/mL (≈ 193 µM)

CN1CCCCC1CCN1c2ccc(Cl)cc2Sc2cc3ccccc3nc21 (stereo not drawn)
inhibition [8]: 99.9% | IC50 (Cholinesterase): 122 nM

CN1CCN(c2ncc3c(n2)Sc2ccccc2N3)CC1
IC50 (Lipoxygenase): 87700 nM

CC(=O)NCCCN1c2cnccc2Sc2cccnc21
Activity (PBMC [9]): <= 22% | inhibition at 50 µg/mL (PBMC [10]): 60%

O=[N+]([O-])c1ccc2c(c1)N=c1c(c3c(c4ccccc14)=Nc1ccccc1S3)O2
MIC (Bacillus subtilis): 45.7 µg/mL (≈ 115 µM) | MIC (Candida albicans): 100 µg/mL (≈ 252 µM)

O=S(=O)(NC1CCN(Cc2ccc3c(c2)Nc2nccnc2S3)CC1)N1CCOCC1
inhibition in vivo at 10 mg/kg (Mus musculus [1]): 66.1% | IC50 [2]: 270 to 1400 nM

CN1CCN(c2cc3c(nn2)Nc2ccccc2S3)CC1
IC50 [11]: > 287000 nM

c1cnc2c(c1)Sc1ccncc1N2CCN1CCCC1
Activity (PBMC [9]): <= 22% | inhibition at 5 µg/mL (PBMC [12]): > 85%

CS(=O)(=O)N1CCN(Cc2ccc3c(c2)Nc2nccnc2S3)CC1
inhibition in vivo at 10 mg/kg (Mus musculus [1]): 53.4% | IC50 [2]: 270 to 1400 nM

CC(C)N(CCSC(=O)N1c2cc(F)ccc2Sc2cccnc21)C(C)C
MED50 (Mus musculus [7]): 0.058 to 1.8 mg/kg

O=[N+]([O-])c1ccc(N2c3nc4ccccc4cc3Sc3cc4ccccc4nc32)cc1
inhibition of growth at 10 µM (UO-31): 57 to 73%

CS(=O)(=O)NC1CCN(Cc2ccc3c(c2)Nc2nccnc2S3)CC1
inhibition in vivo at 10 mg/kg (Mus musculus [1]): 83.4 to 89.7% | IC50 [2]: 270 to 1400 nM

COc1ccc2c(c1Cl)Sc1nccnc1N2C
IC50 [6]: 1 to 5 µg/mL (≈ 3.57 to 17.9 µM)

COc1ccc2c(n1)Sc1c3c(c4ccccc4c1=N2)=Nc1cc([N+](=O)[O-])ccc1O3
MIC (Escherichia coli): 87.1 to 97.1 µg/mL (≈ 203 to 227 µM) | MIC (Bacillus cereus): 87.4 µg/mL (≈ 204 µM)

Cc1ccc2c(c1)Sc1c[n+](C)c3ccccc3c1N2.[Cl-]
MIC (Enterococcus faecalis): 11 µg/mL

CSc1ccc2c(c1)N(C(=O)SCCN(C(C)C)C(C)C)c1ncccc1S2
MED50 (Mus musculus [7]): 0.058 to 1.8 mg/kg

c1ccc2c(c1)Nc1nnc(N3CCOCC3)cc1S2
IC50 [11]: > 287000 nM

CCN(CC)CCN1c2cnccc2Sc2cccnc21
Activity (PBMC [9]): <= 22% | inhibition at 50 µg/mL (PBMC [10]): 60%

CN1CCCCC1CCN1c2nc3ccccc3cc2Sc2cc3ccccc3nc21 (stereo not drawn)
inhibition [8]: 99.8% | IC50 (Cholinesterase): 11.8 nM

Cc1nc(N2CCN(C)CC2)nc2c1Nc1ccccc1S2
IC50 (Lipoxygenase): 21200 nM

c1ccc2c(c1)Nc1nnc(N3CCCCC3)cc1S2
IC50 [11]: > 287000 nM

CC(CN(C)C)CN1c2cnccc2Sc2cccnc21 (stereo not drawn)
Activity (PBMC [9]): <= 22% | inhibition at 5 µg/mL (PBMC [12]): > 85% | inhibition at 50 µg/mL (PBMC [10]): 60%

c1ccc(CN2c3cnccc3Sc3cccnc32)cc1
Activity (PBMC [9]): <= 22% | inhibition at 5 µg/mL (PBMC [12]): > 85%

CC(C)N(CCSC(=O)N1c2cc(C(F)(F)F)ccc2Sc2cccnc21)C(C)C
MED50 (Mus musculus [7]): 0.058 to 1.8 mg/kg

CN1c2ccccc2Sc2nccnc21
IC50 [6]: 1 to 5 µg/mL (≈ 4.65 to 23.2 µM)

C=CCN1c2cnccc2Sc2cccnc21
Activity (PBMC [9]): <= 22% | inhibition at 5 µg/mL (PBMC [12]): > 85%

CS(=O)(=O)NCCC1CCN(Cc2ccc3c(c2)Nc2nccnc2S3)CC1
inhibition in vivo at 10 mg/kg (Mus musculus [1]): 83.4 to 89.7% | IC50 [2]: 270 to 1400 nM

CSc1ccc2c(c1)Sc1cc3ccccc3nc1N2CCC1CCCCN1C (stereo not drawn)
inhibition [8]: 99.9% | IC50 (Cholinesterase): 24.4 nM

C#CCN1c2cnccc2Sc2cccnc21
Activity (PBMC [9]): <= 22% | inhibition at 5 µg/mL (PBMC [12]): > 85%

C[n+]1cc2c(c3ccccc31)Nc1ccc(Br)cc1S2.[Cl-]
MIC (Enterococcus faecalis): 9 µg/mL | MIC (Staphylococcus aureus): 26 µg/mL

CCN(CC)CCSc1nnc2c3c(cnn12)Sc1ccccc1N3
Activity (Mus musculus [4]): 54 - 65%

c1cnc2c(c1)Sc1ccncc1N2
Activity (PBMC [9]): <= 22% | inhibition at 50 µg/mL (PBMC [10]): > 70%

O=C(O)C(=O)O.c1ccc2c(c1)Sc1cnccc1N2CCCN1CCCCC1
Activity (Rattus norvegicus): 59 - 86%

CN1CCN(CC#CCN2c3cccnc3Sc3cccnc32)CC1
IC50 (MCF7): 7.5 µg/mL (≈ 21.3 µM)

COc1ccc2c(n1)Sc1c3c(c4ccccc4c1=N2)=Nc1ccc(OC)nc1S3
MIC (Candida albicans): 72.4 µg/mL (≈ 168 µM) | MIC (Escherichia coli): 144 µg/mL (≈ 336 µM)

O=C(O)CC1C2CCC1CN(Cc1ccc3c(c1)Nc1nccnc1S3)C2 (stereo not drawn)
inhibition in vivo at 10 mg/kg (Mus musculus [3]): 83.2%

c1ccc2c(c1)Nc1nnc(N3CCCC3)cc1S2
IC50 [11]: > 287000 nM

C[n+]1cc2c(c3ccccc31)Nc1ccccc1S2.[Cl-]
MIC (Enterococcus faecalis): 6 µg/mL | MIC (Escherichia coli): 7 µg/mL

O=C(O)C(=O)O.c1ccc2c(c1)Sc1cnccc1N2CCCN1CCCC1
Activity (Rattus norvegicus): 59 - 86%

CN(C)CCCN1c2cnccc2Sc2cccnc21
Activity (PBMC [9]): <= 22% | inhibition at 5 µg/mL (PBMC [12]): > 85% | inhibition at 50 µg/mL (PBMC [10]): > 70%

c1ccc(CN2c3nc4ccccc4cc3Sc3cc4ccccc4nc32)cc1
inhibition of growth at 10 µM (UO-31): 57 to 73%

O=C(O)CC1CC2(CCN(Cc3ccc4c(c3)Nc3nccnc3S4)CC2)C1
inhibition in vivo at 10 mg/kg (Mus musculus [3]): 88.8% | IC50 [2]: 420 to 1000 nM

CN(C)CCN1c2ccccc2Sc2cnccc21.O=C(O)C(=O)O
Activity (Rattus norvegicus): 59 - 86%

CC(C)N(CCSC(=O)N1c2ccccc2Sc2cccnc21)C(C)C
MED50 (Mus musculus [7]): 0.058 to 1.8 mg/kg

C#CCN1c2cccnc2Sc2cccnc21
IC50 (MCF7): 3.9 µg/mL (≈ 16.3 µM)

O=C(NCCCl)NCCCN1c2nc3ccccc3cc2Sc2cc3ccccc3nc21
inhibition [8]: 83.2% | IC50 (Cholinesterase): 2900 nM

c1cnc2c(c1)Sc1ccncc1N2CCN1CCOCC1
Activity (PBMC [9]): <= 22% | inhibition at 50 µg/mL (PBMC [10]): 60%

C[n+]1cc2c(c3ccccc31)Nc1ccc(Cl)cc1S2.[Cl-]
MIC (Enterococcus faecalis): 4 µg/mL | MIC (Escherichia coli): 6 µg/mL

O=[N+]([O-])c1cnccc1N1c2cccnc2Sc2cccnc21
IC50 (HFF-1): ≥ 50 µg/mL | IC50 (MCF7): 4.6 µg/mL (≈ 14.2 µM)

N#Cc1c(O)ncc2c1Nc1ccccc1S2
IC50 [13]: 310 to 910 nM

O=C(NCCCl)NCCCN1c2ccc(Cl)cc2Sc2cc3ccccc3nc21
inhibition [8]: 80%
